≈ marks a conversion by molar mass, not a printed value. Where two headings read alike, the source gives them in different places.
What was measured:
[1] = In vitro dissolution test, microcentrifuge method, in model fasted duodenal solution (MFDS); assay type: physicochemical
Method: The compositions comprising the CETP inhibitor and concentration-enhancing polymer provide enhanced concentration of the dissolved CETP inhibitor in in vitro dissolution tests. It has been determined that enhanced drug concentration in in vitro dissolution tests in Model Fasted Duodenal (MFD) solution or Phosphate Buffered Saline (PBS) is a good indicator of in vivo performance and bioavailability. An appropriate PBS solution is an aqueous solution comprising 20 mM sodium phosphate (Na2HPO4), 47 mM potassium phosphate (KH2PO4), 87 mM NaCl, and 0.2 mM KCl, adjusted to pH 6.5 with NaOH. An appropriate MFD solution is the same PBS solution wherein additionally is present 7.3 mM sodium taurocholic acid and 1.4 mM of 1-palmitoyl-2-oleyl-sn-glycero-3-phosphocholine. In particular, a composition of the present invention can be dissolution-tested by adding it to MFD or PBS solution and agitating to promote dissolution.
A typical in vitro test to evaluate enhanced drug concentration in aqueous solution can be conducted by (1) adding with agitation a sufficient quantity of control composition, typically the CETP inhibitor alone, to the in vitro test medium, typically MFD or PBS solution, to achieve equilibrium concentration of the CETP inhibitor; (2) adding with agitation a sufficient quantity of test composition (e.g., the CETP inhibitor and polymer) in an equivalent test medium, such that if all the CETP inhibitor dissolved, the theoretical concentration of CETP inhibitor would exceed the equilibrium concentration of the CETP inhibitor by a factor of at least 10, and preferably a factor of at least 100; and (3) comparing the measured MDC and/or aqueous concentration versus time AUC of the test composition in the test medium with the equilibrium concentration, and/or the aqueous concentration versus time AUC of the control composition. In conducting such a dissolution test, the amount of test composition or control composition used is an amount such that if all of the CETP inhibitor dissolved the CETP inhibitor concentration would be at least 10-fold and preferably at least 100-fold that of the equilibrium concentration. Indeed, for some extremely insoluble CETP inhibitors, in order to identify the MDC achieved it may be necessary to use an amount of test composition such that if all of the CETP inhibitor dissolved, the CETP inhibitor concentration would be 10,000-fold or even more, that of the equilibrium concentration of the CETP inhibitor.
The concentration of dissolved CETP inhibitor is typically measured as a function of time by sampling the test medium and plotting CETP inhibitor concentration in the test medium vs. time so that the MDC can be ascertained. The MDC is taken to be the maximum value of dissolved CETP inhibitor measured over the duration of the test.
To avoid large CETP inhibitor particulates which would give an erroneous determination, the test solution is either filtered or centrifuged. “Dissolved CETP inhibitor” is typically taken as that material that either passes a 0.45 μm syringe filter or, alternatively, the material that remains in the supernatant following centrifugation. Filtration can be conducted using a 13 mm, 0.45 μm polyvinylidine difluoride syringe filter sold by Scientific Resources under the trademark TITAN®. Centrifugation is typically carried out in a polypropylene microcentrifuge tube by centrifuging at 13,000 G for 60 seconds. Other similar filtration or centrifugation methods can be employed and useful results obtained. For example, using other types of microfilters may yield values somewhat higher or lower (±10-40%) than that obtained with the filter specified above but will still allow identification of preferred dispersions. […]

[2] = Solubility in water; assay type: physicochemical
Text: The invention is useful for CETP inhibitors which have sufficiently low aqueous solubility, low bioavailability or slow rate of absorption such that it is desirable to increase their concentration in an aqueous environment of use. Therefore, anytime one finds it desirable to raise the aqueous concentration of the CETP inhibitor in a use environment, the invention will find utility.

[3] = Table 9, Drug 2, receptor solution MFDS, TCmax 400 μg/mL (Examples 14-16: 100 μg/mL)
[4] = aqueous solubility determined at about 22° C. unless otherwise specified, read-out: solubility in water

COC(=O)N(Cc1cc(C(F)(F)F)cc(C(F)(F)F)c1)[C@@H]1C[C@H](C2CC2)N(C(=O)OC(C)C)c2ccc(C(F)(F)F)cc21 [Control 1, [2R,4R]4-[(3,5-bis-trifluoromethyl-benzyl)-methoxycarbonyl-amino]-2-cyclopropyl-6-trifluoromethyl-3,4-dihydro-2H-quinoline-1-carboxylic acid isopropyl ester]
Concentration ([1]; Table 2, Drug 1, MFDS, 37° C., 0 min, TCmax 100 μg/mL (Example 4: 500 μg/mL)): 0 ng/mL | Concentration ([1]; Table 2, Drug 1, MFDS, 37° C., 4 min, TCmax 100 μg/mL): <100 ng/mL | Concentration ([1]; Table 2, Drug 1, MFDS, 37° C., 10 min, TCmax 100 μg/mL (Example 4: 500 μg/mL)): 300 ng/mL | Concentration ([1]; Table 2, Drug 1, MFDS, 37° C., 20 min, TCmax 100 μg/mL): 300 ng/mL | Concentration ([1]; Table 2, Drug 1, MFDS, 37° C., 40 min, TCmax 100 μg/mL): 900 ng/mL | Concentration ([1]; Table 2, Drug 1, MFDS, 37° C., 90 min, TCmax 100 μg/mL (Example 4: 500 μg/mL)): 800 ng/mL | AUC ([1]; Table 2, Drug 1, MFDS, 37° C., to 0 min, TCmax 100 μg/mL (Example 4: 500 μg/mL)): 0 min-μg/mL | AUC ([1]; Table 2, Drug 1, MFDS, 37° C., to 4 min, TCmax 100 μg/mL): <0.1 min-μg/mL | AUC ([1]; Table 2, Drug 1, MFDS, 37° C., to 10 min, TCmax 100 μg/mL (Example 4: 500 μg/mL)): 1 min-μg/mL | AUC ([1]; Table 2, Drug 1, MFDS, 37° C., to 20 min, TCmax 100 μg/mL): 4 min-μg/mL | AUC ([1]; Table 2, Drug 1, MFDS, 37° C., to 40 min, TCmax 100 μg/mL): 16 min-μg/mL | AUC ([1]; Table 2, Drug 1, MFDS, 37° C., to 90 min, TCmax 100 μg/mL (Example 4: 500 μg/mL)): 57 min-μg/mL | AUC90 ([1]; Table 3, area under the aqueous concentration versus time curve during the 90-minute test, Drug 1, MFDS, TCmax 100 μg/mL (Example 4: 500 μg/mL)): 57 min-μg/mL | Cmax, 90 ([1]; Table 3, maximum concentration of Drug 1 in solution during the 90-minute test, MFDS, TCmax 100 μg/mL (Example 4: 500 μg/mL)): 900 ng/mL

CCOC(=O)N1c2ccc(C(F)(F)F)cc2[C@@H](N(Cc2cc(C(F)(F)F)cc(C(F)(F)F)c2)C(=O)OC)C[C@H]1CC [Control 3, [2R,4S]4-[(3,5-bis-trifluoromethyl-benzyl)-methoxycarbonyl-amino]-2-ethyl-6-trifluoromethyl-3,4-dihydro-2H-quinoline-1-carboxylic acid ethyl ester]
Concentration ([1]; Table 8, Drug 2, receptor MFDS, 0 min, TCmax 400 μg/ml (Examples 14-16: 100 μg/ml)): 0 ng/mL | Concentration ([1]; Table 8, Drug 2, receptor MFDS, 4 min, TCmax 400 μg/ml): <1000 ng/mL | Concentration ([1]; Table 8, Drug 2, receptor MFDS, 10 min, TCmax 400 μg/ml (Examples 14-16: 100 μg/ml)): <1000 ng/mL | Concentration ([1]; Table 8, Drug 2, receptor MFDS, 20 min, TCmax 400 μg/ml (Examples 14-16: 100 μg/ml)): <1000 ng/mL | Concentration ([1]; Table 8, Drug 2, receptor MFDS, 40 min, TCmax 400 μg/ml (Examples 14-16: 100 μg/ml)): <1000 ng/mL | Concentration ([1]; Table 8, Drug 2, receptor MFDS, 90 min, TCmax 400 μg/ml (Examples 14-16: 100 μg/ml)): <1000 ng/mL | AUC ([1]; Table 8, Drug 2, receptor MFDS, to 0 min, TCmax 400 μg/ml (Examples 14-16: 100 μg/ml)): 0 min-μg/ml | AUC ([1]; Table 8, Drug 2, receptor MFDS, to 4 min, TCmax 400 μg/ml): <4 min-μg/ml | AUC ([1]; Table 8, Drug 2, receptor MFDS, to 10 min, TCmax 400 μg/ml (Examples 14-16: 100 μg/ml)): <10 min-μg/ml | AUC ([1]; Table 8, Drug 2, receptor MFDS, to 20 min, TCmax 400 μg/ml (Examples 14-16: 100 μg/ml)): <20 min-μg/ml | AUC ([1]; Table 8, Drug 2, receptor MFDS, to 40 min, TCmax 400 μg/ml (Examples 14-16: 100 μg/ml)): <40 min-μg/ml | AUC ([1]; Table 8, Drug 2, receptor MFDS, to 90 min, TCmax 400 μg/ml (Examples 14-16: 100 μg/ml)): <90 min-μg/ml | AUC90 [1, 3]: <90 min-μg/mL | Cmax, 90 [1, 3]: <1000 ng/mL | AUC90 ([1]; Table 22: Drug 2, MFD solution): <90 min-μg/mL | Cmax, 90 ([1]; Table 22: Drug 2, MFD solution): <1000 ng/mL

COC(=O)N(Cc1cc(C(F)(F)F)cc(C(F)(F)F)c1)[C@@H]1C[C@H](C2CC2)N(C(=O)OC(C)C)c2ccc(C(F)(F)F)cc21 [Drug 1, [2R,4R]4-[(3,5-bis-trifluoromethyl-benzyl)-methoxycarbonyl-amino]-2-cyclopropyl-6-trifluoromethyl-3,4-dihydro-2H-quinoline-1-carboxylic acid isopropyl ester]
solubility [2, 4]: < 1 µg/mL

CCOC(=O)N1c2ccc(C(F)(F)F)cc2[C@@H](N(Cc2cc(C(F)(F)F)cc(C(F)(F)F)c2)C(=O)OC)C[C@H]1CC [Drug 2, [2R,4S]4-[(3,5-bis-trifluoromethyl-benzyl)-methoxycarbonyl-amino]-2-ethyl-6-trifluoromethyl-3,4-dihydro-2H-quinoline-1-carboxylic acid ethyl ester]
solubility ([2]; 22 °C, crystalline drug, read-out: solubility of crystalline Drug 2 (accurate measurements)): ~0.01 µg/mL (≈ 0.0167 µM) | solubility [2, 4]: < 1 µg/mL

CCCOC(=O)N1c2ccc(C(F)(F)F)cc2[C@@H](N(Cc2cc(C(F)(F)F)cc(C(F)(F)F)c2)C(=O)OC)C[C@H]1CC [Drug 3, [2R,4S]4-[(3,5-bis-trifluoromethyl-benzyl)-methoxycarbonyl-amino]-2-ethyl-6-trifluoromethyl-3,4-dihydro-2H-quinoline-1-carboxylic acid propyl ester]
solubility [2, 4]: < 0.1 µg/mL

CCOC(=O)N1c2cc(OC)c(OC)cc2[C@@H](N(Cc2cc(C(F)(F)F)cc(C(F)(F)F)c2)C(=O)OC)C[C@H]1C [Drug 4, [2R,4S]4-[(3,5-bis-trifluoromethyl-benzyl)-methoxycarbonyl-amino]-6,7-dimethoxy-2-methyl-3,4-dihydro-2H-quinoline-1-carboxylic acid ethyl ester]
solubility [2, 4]: < 1 µg/mL

CCOC(=O)N1c2cc(CC)c(CC)cc2[C@@H](N(Cc2cc(C(F)(F)F)cc(C(F)(F)F)c2)C(=O)OC)C[C@H]1C [Drug 5, [2R,4S]4-[(3,5-bis-trifluoromethyl-benzyl)-methoxycarbonyl-amino]-6,7-diethyl-2-methyl-3,4-dihydro-2H-quinoline-1-carboxylic acid ethyl ester]
solubility [2, 4]: < 1 µg/mL

CCOC(=O)N1c2cc3c(cc2[C@@H](N(Cc2cc(C(F)(F)F)cc(C(F)(F)F)c2)C(=O)OC)C[C@H]1C)CCC3 [Drug 6, [2R,4S]4-[(3,5-bis-trifluoromethyl-benzyl)-methoxycarbonyl-amino]-2-methyl-2,3,4,6,7,8-hexahydro-cyclopenta[g]quinoline-1-carboxylic acid ethyl ester]
solubility [2, 4]: < 1 µg/mL

CC[C@@H]1C[C@H](N(Cc2cc(C(F)(F)F)cc(C(F)(F)F)c2)C(C)=O)c2cc(C(F)(F)F)ccc2N1C(=O)OC(C)C [Drug 7, [2R,4S]4-[acetyl-(3,5-bis-trifluoromethyl-benzyl)-amino]-2-ethyl-6-trifluoromethyl-3,4-dihydro-2H-quinoline-1-carboxylic acid isopropyl ester]
solubility [2, 4]: < 1 µg/mL

COC(=O)N(Cc1cc(C(F)(F)F)cc(C(F)(F)F)c1)[C@H]1C[C@@H](C2CC2)N(C(=O)OC(C)C)c2ccc(C(F)(F)F)cc21 [Drug 8, [2S,4S]4-[(3,5-bis-trifluoromethyl-benzyl)-methoxycarbonyl-amino]-2-cyclopropyl-6-trifluoromethyl-3,4-dihydro-2H-quinoline-1-carboxylic acid isopropyl ester]
solubility [2, 4]: < 1 µg/mL

CC(C)c1cc2c(c(-c3ccc(F)cc3)c1[C@@H](F)c1ccc(C(F)(F)F)cc1)[C@@H](O)CC1(CCC1)C2 [Drug 10, (4′S)-5′-(4-fluorophenyl)-6′-[(S)-fluoro[4-(trifluoromethyl)phenyl]methyl]-3′,4′-dihydro-7′-(1-methylethyl)-spiro[cyclobutane-1,2′(1′H)-naphthalen]-4′-ol]
solubility [2, 4]: < 1 µg/mL
